Source: article PMC9782245, “Synthesis and Structural Optimization of 2,7,9-Trisubstituted purin-8-ones as FLT3-ITD Inhibitors” (International Journal of Molecular Sciences, 2022)
Several values for one entry are separate records, joined by “and”; a condition that tells them apart may be missing. Equal entries are not always repeated. Where two headings read alike, the source gives them in different places.

Columns and labels:
FLT3 = biological target: T1, FLT3 (Homo sapiens, UniProt P36888); assay: Kinase selectivity panel at 1 µM (Eurofins), FLT3; type: biochemical; conditions: 30 kinases
T1 construct: purchased Eurofins Discovery (France)
T1 sequence (P36888 27-993): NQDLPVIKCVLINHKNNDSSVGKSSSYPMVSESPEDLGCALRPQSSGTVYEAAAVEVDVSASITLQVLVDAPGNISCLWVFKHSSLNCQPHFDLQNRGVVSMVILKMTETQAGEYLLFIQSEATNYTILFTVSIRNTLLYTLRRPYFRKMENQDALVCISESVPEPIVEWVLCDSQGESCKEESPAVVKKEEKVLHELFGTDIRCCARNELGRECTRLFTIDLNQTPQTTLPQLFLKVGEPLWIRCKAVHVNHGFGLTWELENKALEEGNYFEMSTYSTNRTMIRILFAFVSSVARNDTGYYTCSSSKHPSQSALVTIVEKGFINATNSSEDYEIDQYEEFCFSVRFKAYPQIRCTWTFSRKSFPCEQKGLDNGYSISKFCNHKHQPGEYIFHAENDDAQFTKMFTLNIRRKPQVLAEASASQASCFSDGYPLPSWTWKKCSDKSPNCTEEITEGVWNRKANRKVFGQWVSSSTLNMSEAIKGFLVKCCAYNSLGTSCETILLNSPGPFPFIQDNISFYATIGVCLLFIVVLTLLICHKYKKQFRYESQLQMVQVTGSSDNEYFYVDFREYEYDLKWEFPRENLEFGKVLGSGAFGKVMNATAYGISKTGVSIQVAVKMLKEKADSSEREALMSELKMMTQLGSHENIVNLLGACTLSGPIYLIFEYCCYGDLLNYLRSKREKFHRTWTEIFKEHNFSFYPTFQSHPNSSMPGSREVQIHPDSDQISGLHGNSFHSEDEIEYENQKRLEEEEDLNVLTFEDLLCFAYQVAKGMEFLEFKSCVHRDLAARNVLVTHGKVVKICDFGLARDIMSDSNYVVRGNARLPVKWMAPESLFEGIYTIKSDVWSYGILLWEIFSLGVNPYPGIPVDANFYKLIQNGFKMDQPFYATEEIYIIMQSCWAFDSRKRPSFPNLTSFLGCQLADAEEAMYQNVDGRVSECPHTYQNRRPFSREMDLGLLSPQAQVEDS
Experimental: (§1) Three representative compounds (14d, 14e, and 15a) were profiled in a 1 µM concentration against 30 kinases that were selected as known off-targets of approved CDK4/6 inhibitors. […] Additional sensitive kinases include STK16, EphA1, MEKK2, SRC, and MER (≤10% of residual enzyme activities), which are not targets of the structurally similar CDK4/6 inhibitor, trilaciclib. We also screened compound 15a, an analogue of 14d, bearing isopropyl at position 7 of the purine instead of the methyl group. This change rapidly diminished the potency against CDK4 (dropped to 90% of residual enzyme activity), but the preference for FLT3 remained (1st rank) (Figure 2).
(§2) CDK/cyclin complexes and FLT3 kinases were assayed as previously described. Protein kinase selectivity was evaluated at a single concentration (1 µM) by screening against 30 enzymes at Eurofins Discovery (France).

K562 cells = assay: Resazurin-based viability assay, K562; type: cell-based; conditions: Homo sapiens, 72 h, at least duplicate experiments
From the text: (§3) In parallel to kinase assays, we measured the effect of compounds on the viability of cancer cell lines MV4-11 and K562 using a resazurin-based assay. MV4-11 is an AML cell line dependent on a constitutively activated FLT3-ITD kinase with high sensitivity to FLT3 inhibition, K562 cells (chronic myelogenous leukemia) are independent on FLT3.
(§4) Human cell lines were obtained from the European Collection of Authenticated Cell Cultures (K562) and Cell lines service (MV4-11) and were cultivated according to the provider’s instructions. Briefly, cells were maintained in RPMI-1640 (MV4-11) or DMEM (K562) supplemented with 10% fetal bovine serum, penicillin (100 U/mL), and streptomycin (0.1 mg/mL) at 37 °C in 5% CO2. For the viability assays, cells were treated in triplicate with six different doses of each compound for 72 h. After treatments, the resazurin (Sigma Aldrich, St. Louis, MO, USA) solution was added for 4 h, and the fluorescence of resorufin corresponding to live cells was measured at 544/590 nm (excitation/emission) using a Fluoroskan Ascent microplate reader (Labsystems). The GI50 value, the drug concentration lethal to 50% of the cells, was calculated from the dose-response curves that resulted from the assays.

CDK2/E = CDK2/E (Homo sapiens, UniProt P24941); assay: Kinase inhibition assay CDK2/E; type: biochemical
Experimental: (§5) Newly prepared compounds 12–15 were assayed for inhibition of FLT3-ITD kinase as well as CDK4 and CDK2, known off-targets of structurally related compounds. We observed that CDK4 was sensitive to nearly all compounds with IC50 values in mid-nanomolar values.
as §2

Src = biological target: T2, Src (Homo sapiens, UniProt P12931); assay: Kinase selectivity panel at 1 µM (Eurofins), Src; type: biochemical; conditions: read-out: residual enzyme activity Src
T2 construct: purchased Eurofins Discovery (France)
T2 sequence (P12931 whole entry): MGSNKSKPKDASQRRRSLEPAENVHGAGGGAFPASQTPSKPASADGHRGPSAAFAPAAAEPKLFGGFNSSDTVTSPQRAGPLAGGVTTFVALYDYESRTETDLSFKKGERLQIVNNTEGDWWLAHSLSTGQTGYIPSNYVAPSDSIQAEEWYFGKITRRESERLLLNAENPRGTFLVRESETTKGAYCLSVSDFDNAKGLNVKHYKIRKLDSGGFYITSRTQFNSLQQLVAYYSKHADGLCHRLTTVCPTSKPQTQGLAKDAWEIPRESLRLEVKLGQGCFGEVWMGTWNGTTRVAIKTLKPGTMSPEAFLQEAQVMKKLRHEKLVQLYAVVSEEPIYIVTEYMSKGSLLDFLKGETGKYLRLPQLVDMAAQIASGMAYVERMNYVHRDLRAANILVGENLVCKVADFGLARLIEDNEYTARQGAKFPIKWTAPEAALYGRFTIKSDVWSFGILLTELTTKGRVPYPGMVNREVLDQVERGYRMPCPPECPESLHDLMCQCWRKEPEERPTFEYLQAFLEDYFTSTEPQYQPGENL
Experimental: as §1, §2

CDK4/D1 = CDK4/D1 (Homo sapiens, UniProt P11802); assay: Kinase inhibition assay CDK4/D1; type: biochemical
Chain of CDK4/D1 (P11802 whole entry): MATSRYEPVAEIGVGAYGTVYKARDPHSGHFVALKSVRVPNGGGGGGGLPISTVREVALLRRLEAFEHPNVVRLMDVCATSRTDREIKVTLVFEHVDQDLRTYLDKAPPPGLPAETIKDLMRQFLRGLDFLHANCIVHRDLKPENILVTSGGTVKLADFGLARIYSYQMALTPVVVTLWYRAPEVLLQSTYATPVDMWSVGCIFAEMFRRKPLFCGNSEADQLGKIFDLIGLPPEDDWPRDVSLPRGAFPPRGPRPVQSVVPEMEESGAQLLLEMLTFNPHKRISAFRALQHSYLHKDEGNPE
Chain of CDK4/D1 (P24385 whole entry partner): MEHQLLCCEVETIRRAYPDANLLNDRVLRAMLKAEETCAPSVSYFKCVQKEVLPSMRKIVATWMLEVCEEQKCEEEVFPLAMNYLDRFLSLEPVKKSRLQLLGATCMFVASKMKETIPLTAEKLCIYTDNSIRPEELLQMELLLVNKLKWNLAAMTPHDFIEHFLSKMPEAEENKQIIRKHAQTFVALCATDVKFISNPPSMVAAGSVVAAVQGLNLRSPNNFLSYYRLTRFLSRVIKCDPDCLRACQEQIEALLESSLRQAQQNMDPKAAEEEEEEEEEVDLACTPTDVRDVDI
Experimental: as §5, §2

MV4-11 cells = assay: Resazurin-based viability assay, MV4-11; type: cell-based, Human; conditions: for GI50: Homo sapiens, MV4-11, 72 h, resazurin, at least duplicate experiments
From the text: as §3, §4

CDK4 = biological target: T3, CDK4 (Homo sapiens, UniProt P11802); assay: Kinase selectivity panel at 1 µM (Eurofins), CDK4; type: biochemical
T3 construct: purchased Eurofins Discovery (France)
T3 sequence (P11802 whole entry): as the sequence (P11802 whole entry) above
T3 sequence (P30281 whole entry partner): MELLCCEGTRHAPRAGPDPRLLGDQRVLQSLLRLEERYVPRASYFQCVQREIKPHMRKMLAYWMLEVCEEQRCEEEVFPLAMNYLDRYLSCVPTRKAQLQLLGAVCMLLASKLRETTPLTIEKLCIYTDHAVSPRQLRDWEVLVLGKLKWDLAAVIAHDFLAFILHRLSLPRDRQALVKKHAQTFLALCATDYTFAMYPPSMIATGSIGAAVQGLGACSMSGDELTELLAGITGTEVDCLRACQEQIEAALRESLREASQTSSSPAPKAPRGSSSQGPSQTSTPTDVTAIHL
Experimental: as §1, §2

FLT3-ITD = biological target: T4, FLT3-ITD (Homo sapiens, UniProt P36888, ITD); assay: Kinase inhibition assay FLT3-ITD; type: biochemical
T4 sequence (P36888 27-993): T1 sequence (P36888 27-993)
Experimental: as §5, §2

[1] = at least duplicate experiments, read-out: IC50 CDK2/E
[2] = at least duplicate experiments, read-out: IC50 CDK4/D1
[3] = at least duplicate experiments, read-out: IC50 FLT3-ITD

## Cn1c(=O)n(C2CCCC2)c2nc(Nc3ccc(N4CCNCC4)cc3)ncc21 [14d]
FLT3
  FLT3 inhibition in selectivity panel: potent CDK4 and FLT3 inhibitors
K562 cells
  GI50: 960 nM
CDK2/E; [1]
  IC50: > 1000 nM and 1820 nM
Src
  remaining activity at 1 µM: ≤ 10%
CDK4/D1; [2]
  IC50: 157 nM
MV4-11 cells
  GI50: 120 nM
CDK4
  CDK4 inhibition in selectivity panel: potent CDK4 and FLT3 inhibitors
FLT3-ITD; [3]
  IC50: 83 nM

## Cn1c(=O)n(C2CCCCC2)c2nc(Nc3ccc(N4CCNCC4)cc3)ncc21 [14e]
FLT3
  FLT3 inhibition in selectivity panel: potent CDK4 and FLT3 inhibitors
K562 cells
  GI50: 4530 nM
CDK2/E; [1]
  IC50: 300 nM
CDK2/E; read-out: IC50 CDK2
  IC50: ≤ 300 nM
Src
  remaining activity at 1 µM: ≤ 10%
CDK4/D1; [2]
  IC50: 20 nM
CDK4/D1; read-out: IC50 CDK4
  IC50: ≤ 300 nM
MV4-11 cells
  GI50: 200 nM
MV4-11 cells; K562 / MV4-11
  selectivity index (ratio for GI50's of K562 and MV4-11 cells): > 20
CDK4
  CDK4 inhibition in selectivity panel: potent CDK4 and FLT3 inhibitors
FLT3-ITD; [3]
  IC50: 68 nM
FLT3-ITD; read-out: IC50 FLT3
  IC50: ≤ 300 nM

## CC(C)n1c(=O)n(C2CCCC2)c2nc(Nc3ccc(N4CCNCC4)cc3)ncc21 [15a, 9-cyclopentyl-7-isopropyl-2-((4-(piperazin-1-yl)phenyl)amino)-7,9-dihydro-8H-purin-8-one]
FLT3
  FLT3 inhibition in selectivity panel: 1st rank
K562 cells
  GI50: 580 nM
CDK2/E; [1]
  IC50: 5060 nM
Src
  remaining activity at 1 µM: ≤ 10%
CDK4/D1; [2]
  IC50: 1900 nM
MV4-11 cells
  GI50: 50 nM
CDK4; read-out: residual enzyme activity CDK4
  remaining activity at 1 µM: 90%
FLT3-ITD; [3]
  IC50: 37 nM
